The nature of data set [1]: Cytotoxicity against human HepG2 cells assessed as cell viability at 12 uM incubated for 48 hrs by prestoblue assay. The data set is classed as cell-based. The note with it: read-out: Activity.
The nature of data set [2]: Cytotoxicity against human HEK293 cells assessed as cell viability at 12 uM incubated for 48 hrs by prestoblue assay. Type of data set: cell-based. The note with it: read-out: Activity.
In a further data set the test system is Pseudomonas aeruginosa. Put plainly: Antibacterial activity against Pseudomonas aeruginosa 260-97103 infected in Galleria mellonella larvae assessed as survival of larvae up to 50 mg/kg measured after 24 hrs relative to control. The data set is classed as functional, organism-based. The note with it: dose mg/kg <=50, time 24.0 hrs.
Data set [3] can be described thus: Toxicity in Galleria mellonella larvae assessed as larval […] at 100 mg/kg measured after 24 hrs. Type of data set: organism-based. The note with it: in vivo.

Bounds are passed on as bounds.

Consider `COc1cccc2c1C(=O)c1c(O)c3c(c(O)c1C2=O)C[C@@](O)(C(=O)CO)C[C@@H]3O[C@H]1C[C@H](N)[C@H](O)[C@H](C)O1` [DOXORUBICIN], for which the viability at 48 h, 12 µM in data set [1] and in data set [2] was less than 10% in each case. As to COLISTIN, the Survival in the data set on Pseudomonas aeruginosa was more than 50%. As for `C[C@@H](O)[C@H]1C(=O)N2C(C(=O)O)=C(S[C@@H]3CN[C@H](C(=O)N(C)C)C3)[C@H](C)[C@H]12` [MEROPENEM], the mortality at 24 h in data set [3] was found to be 100%.

In general, mortality refers to the share of the test organisms that died.

(Values after ChEMBL document CHEMBL4715829, “Heterodimeric Rifampicin-Tobramycin conjugates break intrinsic resistance of Pseudomonas aeruginosa to doxycycline and chloramphenicol in vitro and in a Galleria mellonella in vivo model” (Eur J Med Chem, 2019).)
